The results in this text go back to ChEMBL document CHEMBL1201862, “PubChem BioAssay data set” (2004).

Common to all, as to test: NCI tumour cell line growth inhibition, 48 h
Assay [1] concerns SK-MEL-28.
Assay [2] relates to CAKI-1.
The test system of assay [3] is OVCAR-3.
Assay [4] relates to OVCAR-8.
In assay [5] the test system is SK-OV-3.
Assay [6] has as its system T47D.
Assay [7] concerns MDA-MB-435.
Assay [8] relates to SK-MEL-2.
The subject of assay [9] is MOLT-4.
The subject of assay [10] is LOX IMVI.
Assay [11] deals with SF-268.
Assay [12] concerns HT-29.
Assay [13] concerns KM12.
Assay [14] relates to PC-3.
Assay [15] has as its system COLO 205.
For assay [16], the system named is HOP-62.
Assay [17] deals with SK-MEL-5.
Assay [18] relates to UO-31.
Assay [19] deals with IGROV-1.
The test system of assay [20] is NCI-H522.

The structures appear in SMILES notation.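 Tested at 5 concentrations; 48 h exposure; 96-well plates; endpoints linearly interpolated, else capped at highest concentration. The concentration for 50% growth inhibition is given as GI50.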 Activity calls are given as the source filed them. Rule as the data show it: active = GI50 up to about 1.1 µM and inactive = higher.

Regarding `O=c1[nH]c(=O)c2ncn(-c3ccc([N+](=O)[O-])cn3)c2[nH]1`, the GI50 in assay [1], in [2], in assay [3], in assay [4], in assay [5] and in assay [6] was > 100 µM (inactive) in each case. Besides, the GI50 in [7], in assay [8], in assay [9], in assay [10], in assay [11] and in [12] was > 100 µM (inactive) throughout. The GI50 in assay [13], in assay [14], in [15], in assay [16], in assay [17] and in [18] was > 100 µM (inactive) each time.

`CCOC(=O)/C(C(=S)NCc1ccccc1)=C(/N)N1CCCC1`: the GI50 in assay [1], in assay [2], in [3], in assay [4], in assay [6] and in [7] was > 100 µM (inactive) each time. In addition, the GI50 in [8], in assay [9], in assay [19], in [10], in assay [11] and in [12] was > 100 µM (inactive) throughout. Moreover, the GI50 in [13], in assay [14], in assay [15], in assay [16], in assay [20] and in assay [17] was > 100 µM (inactive) throughout. The GI50 in assay [18] was 56.9 µM (inactive).

With `C=CC(C)(C)c1cc([C@@H]2COc3cc(O)ccc3C2=O)c(O)c(OC)c1OC`, the GI50 in assay [1] was 19.5 µM (inactive); in [3] it was 10.5 µM (inactive); in assay [4], 17.3 µM (inactive); in assay [5] it was 14.6 µM (inactive); in assay [6] it was 3.24 µM (inactive); in assay [7] it was 6.44 µM (inactive). Moreover, the GI50 in [8] is 15.9 µM (inactive); in assay [9], 7.01 µM (inactive); in assay [10], 16.6 µM (inactive); in [11], 12.6 µM (inactive); in [12] it was 20.5 µM (inactive); in assay [13], 13.2 µM (inactive). Also, the GI50 in assay [14] is 12.9 µM (inactive); in assay [15], 22 µM (inactive); in assay [20], 4.25 µM (inactive); in assay [17] it was 10.4 µM (inactive); in assay [18], 10.9 µM (inactive).

Regarding `C/C=C(/C)C(=O)O[C@H]1C[C@@H]2[C@@H](O)c3occ(C)c3C[C@]2(C)[C@@H](C)C1`, the GI50 is 16.3 µM (inactive) in assay [1]; 18.3 µM (inactive) in assay [2]; 17.1 µM (inactive) in assay [3]; 19.2 µM (inactive) in assay [4]; 17.1 µM (inactive) in [5]; 11.6 µM (inactive) in assay [6]. In addition, the GI50 in assay [7] is 16.5 µM (inactive); in assay [9], 15.2 µM (inactive); in assay [19] it was 16.7 µM (inactive); in assay [10] it was 17.5 µM (inactive); in [11] it was 16 µM (inactive); in assay [12], 15.6 µM (inactive). The GI50 was 16.3 µM (inactive) in assay [13]; 14.4 µM (inactive) in [14]; 16.2 µM (inactive) in assay [15]; 17.4 µM (inactive) in assay [16]; 14.6 µM (inactive) in assay [20]; 10.4 µM (inactive) in assay [17].

Turning to `O=C(/C(=N\Nc1ccc([N+](=O)[O-])cc1[N+](=O)[O-])NC12CC3CC(CC(C3)C1)C2)C(Br)C(=O)c1ccccc1` (stereo not given), the GI50 was 9.31 µM (inactive) in assay [1]; 3.2 µM (inactive) in [2]; 2.54 µM (inactive) in [3]; 3.48 µM (inactive) in assay [4]; 2.75 µM (inactive) in assay [5]; 2.69 µM (inactive) in assay [6]. The GI50 was 3.52 µM (inactive) in assay [7]; 2.12 µM (inactive) in assay [8]; 3.52 µM (inactive) in assay [9]; 6.67 µM (inactive) in assay [19]; 2.43 µM (inactive) in assay [10]; 5.05 µM (inactive) in [11]. Also, the GI50 in assay [12] was 4.45 µM (inactive); in assay [13], 2.78 µM (inactive); in [14], 2.61 µM (inactive); in assay [15], 2.18 µM (inactive); in assay [16], 2.74 µM (inactive); in [17], 1.08 µM (active). For the same compound, the GI50 in [18] was 6.12 µM (inactive).

Regarding `CC(C)(C)c1cc2c(O)c(c1)COCc1cc(C(C)(C)C)cc(c1O)COCc1cc(C(C)(C)C)cc(c1O)COC2`, the GI50 in assay [1], in assay [3], in [4], in [5], in assay [6] and in assay [7] was > 100 µM (inactive) in each case. Moreover, the GI50 was > 100 µM (inactive) in [8]; 48 µM (inactive) in assay [9]; > 100 µM (inactive) in assay [19]; 29.4 µM (inactive) in assay [10]; 64.6 µM (inactive) in assay [13]; > 100 µM (inactive) in [14]. Also, the GI50 in [15] was > 100 µM (inactive); in [16] it was > 100 µM (inactive); in assay [17] it was 99.3 µM (inactive); in assay [18] it was 35.5 µM (inactive).

Consider `COc1ccc(NC(=O)/C(O)=C/C(=O)c2ccccc2)cc1`, for which the GI50 in [1], in [2], in assay [4], in assay [5], in [6] and in [7] was > 10 µM (inactive) throughout. Besides, the GI50 is 1.95 µM (inactive) in [9]; 7.38 µM (inactive) in [19]; 1.96 µM (inactive) in [10]; > 10 µM (inactive) in assay [11]; > 10 µM (inactive) in assay [12]; > 10 µM (inactive) in [13]. Also, the GI50 in [14], in assay [15], in assay [16] and in assay [17] was > 10 µM (inactive) in each case.

On to `COc1cc(Nc2nnc3n2S(=O)(=O)c2cc(C)c(Cl)cc2S3)cc(OC)c1`, for which the GI50 in assay [1] was 26 µM (inactive); in assay [2], 8.55 µM (inactive); in assay [3], 5.19 µM (inactive); in [4] it was 17.5 µM (inactive); in assay [5], 14.2 µM (inactive); in assay [6], 8.22 µM (inactive). Further, the GI50 is 4.28 µM (inactive) in assay [7]; 4.29 µM (inactive) in assay [9]; 1.87 µM (inactive) in assay [19]; 11.5 µM (inactive) in [11]; 12.4 µM (inactive) in assay [12]; 23.4 µM (inactive) in assay [13]. Moreover, the GI50 in assay [14] is 8.83 µM (inactive); in [15], 13.2 µM (inactive); in assay [16], 11.9 µM (inactive); in assay [20] it was 2.61 µM (inactive); in [17] it was 9.29 µM (inactive); in [18] it was 11.6 µM (inactive).

Regarding `COC(=O)C1C/C(=C/N(C)C)C(=S)N1` (stereo not given), the GI50 in [1], in [2], in assay [3], in assay [4], in assay [5] and in [6] was > 100 µM (inactive) in each case. Further, the GI50 in assay [7], in assay [8], in [9], in assay [19], in assay [11] and in assay [12] was > 100 µM (inactive) in each case. Besides, the GI50 in [13], in assay [14], in assay [15], in assay [16], in assay [20] and in assay [17] was > 100 µM (inactive) in each case. Also, in assay [18], the GI50 was > 100 µM (inactive).

Consider `COCCOC(C)C(=O)C(O)S(=O)(=O)O` (stereo not given), for which the GI50 in [1], in assay [3], in [4], in [5], in assay [6] and in assay [7] was > 100 µM (inactive) throughout. For the same compound, the GI50 in assay [8], in assay [9], in [19], in [11], in assay [12] and in assay [13] was > 100 µM (inactive) in each case. The GI50 in [14], in [15], in [16], in assay [20], in assay [17] and in assay [18] was > 100 µM (inactive) in each case.

For the compound `CC(C(=O)N1C(=O)N(C(=O)[C@H](C)C(O)c2ccccc2)[C@H](c2ccccc2)[C@H]1c1ccccc1)[C@@H](O)c1ccccc1` (stereo not given in full), the GI50 was > 100 µM (inactive) in assay [1]; 20 µM (inactive) in assay [2]; 25.1 µM (inactive) in assay [4]; 83.6 µM (inactive) in assay [5]; 68.9 µM (inactive) in assay [6]; 26.2 µM (inactive) in assay [7]. For the same compound, the GI50 is 16.9 µM (inactive) in [8]; 12 µM (inactive) in [19]; 38.2 µM (inactive) in assay [11]; 36.6 µM (inactive) in assay [12]; 31.2 µM (inactive) in assay [13]; 9.79 µM (inactive) in assay [14]. The GI50 is 18.7 µM (inactive) in assay [15]; 37.1 µM (inactive) in assay [16]; 30.3 µM (inactive) in assay [20]; 14.9 µM (inactive) in assay [17]; 31.5 µM (inactive) in [18].
